Usually IC50 stands for the concentration that inhibits the measured activity by half.

The target in one test is T1, OsD14 (Oryza sativa, UniProt Q10QA5).
T1 construct: gene D14
T1 sequence (Q10QA5 1-318): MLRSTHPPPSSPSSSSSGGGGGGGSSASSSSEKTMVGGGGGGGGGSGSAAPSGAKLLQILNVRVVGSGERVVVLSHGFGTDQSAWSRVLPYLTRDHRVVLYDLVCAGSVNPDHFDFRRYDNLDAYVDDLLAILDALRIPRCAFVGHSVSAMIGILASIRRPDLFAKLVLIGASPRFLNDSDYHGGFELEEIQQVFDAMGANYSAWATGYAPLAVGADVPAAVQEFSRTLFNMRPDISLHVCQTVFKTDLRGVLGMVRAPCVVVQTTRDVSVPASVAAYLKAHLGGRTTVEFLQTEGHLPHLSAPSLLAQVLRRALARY
Kind of test: competitive YLG (Yoshimulactone Green) hydrolysis assay with purified protein. Format: biochemical.

For test [1], the target named is T2, ShHTL7 (Striga hermonthica Hyposensitive to Light) (Striga hermonthica, UniProt A0A0M3PNA2).
T2 sequence (A0A0M3PNA2 1-271): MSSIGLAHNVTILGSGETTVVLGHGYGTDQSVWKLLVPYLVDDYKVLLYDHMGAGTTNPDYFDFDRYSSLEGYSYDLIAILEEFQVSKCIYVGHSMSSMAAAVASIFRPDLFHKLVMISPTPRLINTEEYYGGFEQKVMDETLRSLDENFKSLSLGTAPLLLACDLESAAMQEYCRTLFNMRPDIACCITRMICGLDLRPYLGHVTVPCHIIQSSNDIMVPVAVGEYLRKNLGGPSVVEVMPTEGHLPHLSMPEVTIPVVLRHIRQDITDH
The description is as above. It counts as biochemical.

Read-outs that look alike come from different tables or passages of the source.

Turning to `CC1=C[C@H](O/C=C2/C(=O)O[C@@H]3c4ccccc4C[C@H]23)OC1=O` (racemic) [GR24, rac-GR24], the IC50 on OsD14 came out at 1040 ± 90 nM; in test [1], 980 ± 260 nM.

As to `CC1=CC(O/C=C(\C(=O)N(C)C)c2ccccc2)OC1=O` (stereo not drawn) [MP16, (Z)-N,N-Dimethyl-3-((4-methyl-5-oxo-2,5-dihydrofuran-2-yl)oxy)-2-phenylacrylamide], in test [1] (read-out: IC50), the IC50 is 4370 ± 210 nM.

Values taken from paper PMC7179673, “A New Series of Carlactonoic Acid Based Strigolactone Analogs for Fundamental and Applied Research” (Frontiers in Plant Science, 2020).
